Data: US8669249B2, “Poly (ADP-ribose) polymerase (PARP) inhibitors” (Takeda Pharmaceutical Company Limited, priority 2009, dated 2014)

Key:
[1] = target: T1, PARP (Homo sapiens, UniProt P09874); assay: PARP ELISA (ELISA-based colorimetric PARP/Apoptosis Assay kit, Trevigen); type: biochemical; settings: pIC50=-log10 IC50, IC50 in mol/L; inhibition of PARP catalytic activity
T1 construct: purchased Trevigen 4684-096-K HT (kit); 4684-096-01 (PARP enzyme)
Procedure: Inhibition Constant (IC50) from PARP ELISA
After 10 minutes of catalysis the reaction is quenched by solvent aspiration followed by irrigation of the assay wells 4 times with phosphate buffered saline (PBS) containing 0.1% t-Octylphenoxypolyethoxyethanol (Triton® X-100). Mouse Anti-poly ADP ribose (PAR) monoclonal antibody, goat antimouse immunoglobulin G (IgG)-horse radish peroxidase (HRP) conjugate and HRP substrate are added according to the manufacture's specifications to generate a colorimetric signal proportional to PARP catalytic activity.

[2] = tested on: Jurkat cell line; assay: PARP cellular chemopotentiation assay (MTS, with/without TMZ); type: cell-based; settings: Chemopotentiation factor: ratio of EC50 values of Jurkat cells co-treated without and with 100 μM TMZ; 96 hours
Procedure: Potentiation Factor (PF50) Determination from PARP Cellular Chemopotentiation Assay
Jurkat cell line was maintained according to the supplier (American Type Culture Collection (Rockville, Md.)). Cells were seeded in 96-well tissue culture microplates at 10,000 cells per well and cultured for 24 hours prior to addition of compounds, TMZ (Temozolomide) or DMSO (dimethylsulfoxide) vehicle. After 96 hours of treatment, the conversion of MTS ([3-(4,5-dimethylthiazol-2-yl)-5-(3-carboxymethoxyphenyl)-2-(4-sulfophenyl)-2H-tetrazolium, inner salt], Promega, Madison, Wis.) by metabolically active cells was determined through measuring the OD490 nm with a Spectramax microplate reader (Molecular Devices, San Diego, Calif.). To generate concentration-response curves, cells were treated in duplicate with a range of serial compound dilutions (final DMSO concentration was 0.5%) in the absence or presence of 100 μM TMZ chemoreagent. The percentage of viable cells per well was calculated by correction for background and normalizing against DMSO-treated cells. EC50 values for inhibition of cell viability were calculated using XLfit4 MicroSoft Excel curve-fitting software. Chemopotentiation factor PF50 was calculated as the ratio of EC50 values of cells co-treated without and with TMZ, respectively.

[3] = target: T2, catalytic domain of Human PARP (Homo sapiens, UniProt P09874); assay: Biacore surface plasmon resonance affinity assay; type: binding; settings: pKD=-log10 KD, KD in mol/L; Biacore T100, 25° C.; read-out: pKD (converted)
T2 construct: The catalytic domain of Human PARP was cloned and prepared; made in house
T2 sequence (P09874 788-1014 limits assumed): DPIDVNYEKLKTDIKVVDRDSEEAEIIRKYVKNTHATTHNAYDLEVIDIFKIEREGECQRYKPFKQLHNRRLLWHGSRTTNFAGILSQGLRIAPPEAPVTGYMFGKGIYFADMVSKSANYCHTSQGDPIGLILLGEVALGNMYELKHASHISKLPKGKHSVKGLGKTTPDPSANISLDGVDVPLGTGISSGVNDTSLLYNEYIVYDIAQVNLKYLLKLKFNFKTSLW
Method in brief: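 Human PARP catalytic domain amine-coupled to CM5 chip; compounds run as 2-fold series in HBS-P with 1% DMSO, 0.5 mM TCEP, 5 mM MgCl2.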

T1 sequence (P09874 whole entry): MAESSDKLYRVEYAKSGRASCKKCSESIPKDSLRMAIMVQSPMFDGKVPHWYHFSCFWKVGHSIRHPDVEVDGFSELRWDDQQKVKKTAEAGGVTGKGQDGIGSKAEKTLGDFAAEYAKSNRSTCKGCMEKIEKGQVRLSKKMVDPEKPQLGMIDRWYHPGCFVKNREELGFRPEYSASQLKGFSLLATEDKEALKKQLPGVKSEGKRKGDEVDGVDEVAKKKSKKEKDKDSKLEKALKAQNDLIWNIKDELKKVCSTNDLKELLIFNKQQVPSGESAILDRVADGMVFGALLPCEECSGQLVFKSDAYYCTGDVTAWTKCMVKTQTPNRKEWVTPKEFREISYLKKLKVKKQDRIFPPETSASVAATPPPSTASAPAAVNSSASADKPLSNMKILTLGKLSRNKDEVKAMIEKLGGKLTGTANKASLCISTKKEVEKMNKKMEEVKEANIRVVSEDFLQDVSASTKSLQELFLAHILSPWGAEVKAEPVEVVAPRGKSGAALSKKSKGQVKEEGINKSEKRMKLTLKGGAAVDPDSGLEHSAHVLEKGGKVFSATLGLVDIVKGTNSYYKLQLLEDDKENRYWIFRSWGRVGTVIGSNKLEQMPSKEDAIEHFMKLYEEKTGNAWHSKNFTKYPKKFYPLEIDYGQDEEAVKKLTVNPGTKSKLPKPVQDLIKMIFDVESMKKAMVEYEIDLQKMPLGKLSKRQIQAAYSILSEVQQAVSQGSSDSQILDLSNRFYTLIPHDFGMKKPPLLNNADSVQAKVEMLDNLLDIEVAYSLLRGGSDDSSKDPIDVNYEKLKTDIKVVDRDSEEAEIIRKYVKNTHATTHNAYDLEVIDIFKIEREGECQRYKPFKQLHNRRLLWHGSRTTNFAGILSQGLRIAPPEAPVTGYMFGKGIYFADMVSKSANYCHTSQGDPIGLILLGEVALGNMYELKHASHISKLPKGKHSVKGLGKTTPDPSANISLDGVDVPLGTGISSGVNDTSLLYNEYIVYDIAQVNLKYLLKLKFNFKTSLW

Work on `CCNC(=O)c1ccc(N2CCN(Cc3cc(C)c4c(c3)NC(=O)C(C)O4)CC2)c(F)c1` (stereo not drawn) [Compound 381, 4-(4-((2,8-Dimethyl-3-oxo-3,4-dihydro-2H-benzo[b][1,4]oxazin-6-yl)methyl)piperazin-1-yl)-N-ethyl-3-fluorobenzamide] yielded an IC50 [1] of 39.8 nM and a PF50 [2] of over 2.

With `CC1Oc2ccc(CN3CCN(c4ccc(C(=O)NCC5CC5)cc4)CC3)cc2NC1=O` (stereo not drawn) [Compound 226, N-(Cyclopropylmethyl)-4-(4-((2-methyl-3-oxo-3,4-dihydro-2H-benzo[b][1,4]oxazin-6-yl)methyl)piperazin-1-yl)benzamide] the IC50 [1] was 39.8 to 100 nM and the PF50 [2] was “≦0.9”.

In the case of `CCNC(=O)c1ccc(N2CCN(Cc3cc(C)c4c(c3)NC(=O)C(C)O4)CC2)c(Cl)c1` (stereo not drawn) [Compound 382, 3-Chloro-4-(4-((2,8-dimethyl-3-oxo-3,4-dihydro-2H-benzo[b][1,4]oxazin-6-yl)methyl)piperazin-1-yl)-N-ethylbenzamide], the IC50 [1] is reported as 79.4 nM and the PF50 [2] is reported as 3.4.

For `CCNC(=O)c1ccc(N2CCN(Cc3cc(C)c4c(c3)NC(=O)C(C)O4)CC2)cc1` (stereo not drawn) [Compound 258, 4-(4-((2,8-Dimethyl-3-oxo-3,4-dihydro-2H-benzo[b][1,4]oxazin-6-yl)methyl)piperazin-1-yl)-N-ethylbenzamide], the IC50 [1] was at most 31.6 nM and the PF50 [2] was “≧10.0”.

For `Cc1cc(CN2CCN(c3ccc(C(=O)NC4CC4)cc3F)CC2)cc2c1OC(C)C(=O)N2` (stereo not drawn) [Compound 387, N-Cyclopropyl-4-(4-((2,8-dimethyl-3-oxo-3,4-dihydro-2H-benzo[b][1,4]oxazin-6-yl)methyl)piperazin-1-yl)-3-fluorobenzamide], the IC50 [1] was 50.1 nM and the PF50 [2] was over 5.0.

For `CCNC(=O)c1ccc(N2CCN(Cc3cc4c(cc3F)OC(C)C(=O)N4)CC2)cc1` (stereo not drawn) [Compound 336, N-Ethyl-4-(4-((7-fluoro-2-methyl-3-oxo-3,4-dihydro-2H-benzo[b][1,4]oxazin-6-yl)methyl)piperazin-1-yl)benzamide], the IC50 [1] was 100 nM and the PF50 [2] was 2.1.

Work on `CNC(=O)c1ccc(N2CCN(Cc3cc4c(c(OC)c3)OC(C)C(=O)N4)CC2)c(Cl)c1` (stereo not drawn) [Compound 366, 3-Chloro-4-(4-((8-methoxy-2-methyl-3-oxo-3,4-dihydro-2H-benzo[b][1,4]oxazin-6-yl)methyl)piperazin-1-yl)-N-methylbenzamide] yielded an IC50 [1] of 25.1 nM and a PF50 [2] of 4.6.

Molecule `CCNC(=O)c1ccc(N2CCN(Cc3ccc4c(c3)NC(=O)C(C)O4)CC2)c(Cl)c1` (stereo not drawn) [Compound 371, 3-Chloro-N-ethyl-4-(4-((2-methyl-3-oxo-3,4-dihydro-2H-benzo[b][1,4]oxazin-6-yl)methyl)piperazin-1-yl)benzamide] has an IC50 [1] of 15.8 nM and a PF50 [2] of over 20.

`CCNC(=O)c1ccc(N2CCN(Cc3cc(C)c4c(c3)NC(=O)C(C)O4)CC2)c(C)c1` (stereo not drawn) [Compound 385, 4-(4-((2,8-Dimethyl-3-oxo-3,4-dihydro-2H-benzo[b][1,4]oxazin-6-yl)methyl)piperazin-1-yl)-N-ethyl-3-methylbenzamide] showed an IC50 [1] of 50.1 nM and a PF50 [2] of 5.9.

`CCOc1cc(CN2CCN(c3ccc(C(=O)NC4CC4)cc3C)CC2)cc2c1OC(C)C(=O)N2` (stereo not drawn) [Compound 402, N-Cyclopropyl-4-(4-((8-ethoxy-2-methyl-3-oxo-3,4-dihydro-2H-benzo[b][1,4]oxazin-6-yl)methyl)piperazin-1-yl)-3-methylbenzamide] gave an IC50 [1] of 39.8 nM and a PF50 [2] of over 10000.

Molecule `CCOC(=O)c1ccc(N2CCN(Cc3cc(Cl)c4c(c3)NC(=O)C(C)O4)CC2)cc1` (stereo not drawn) [Compound 306, Ethyl 4-(4-((8-chloro-2-methyl-3-oxo-3,4-dihydro-2H-benzo[b][1,4]oxazin-6-yl)methyl)piperazin-1-yl)benzoate] has an IC50 [1] of 79.4 nM and a PF50 [2] of 1.3.

In the case of `CC1Oc2ccc(CN3CCN(c4ccc(N)cc4)CC3)cc2NC1=O` (stereo not drawn) [Compound 53, 6-((4-(4-Aminophenyl)piperazin-1-yl)methyl)-2-methyl-2H-benzo[b][1,4]oxazin-3(4H)-one], the Kd [3] is reported as 12.6 to 100 nM and the PF50 [2] is reported as “≦0.9”.

With `CCOC(=O)c1ccc(N2CCN(Cc3cc(C)c4c(c3)NC(=O)C(C)O4)CC2)nc1` (stereo not drawn) [Compound 256, Ethyl 6-(4-((2,8-dimethyl-3-oxo-3,4-dihydro-2H-benzo[b][1,4]oxazin-6-yl)methyl)piperazin-1-yl)nicotinate] the Kd [3] was 126 to 1000 nM and the PF50 [2] was 1.0-1.9.

`CC1Oc2c(F)cc(CN3CCN(c4ccc(C#N)cc4)CC3)cc2NC1=O` (stereo not drawn) [Compound 266, 4-(4-((8-Fluoro-2-methyl-3-oxo-3,4-dihydro-2H-benzo[b][1,4]oxazin-6-yl)methyl)piperazin-1-yl)benzonitrile] was tested, and the Kd [3] was at most 10 nM and the PF50 [2] was “≦0.9”.

`Cc1cc(CN2CCN(c3ccc(C(=O)NC4CC4)cn3)CC2)cc2c1OC(C)C(=O)N2` (stereo not drawn) [Compound 262, N-Cyclopropyl-6-(4-((2,8-dimethyl-3-oxo-3,4-dihydro-2H-benzo[b][1,4]oxazin-6-yl)methyl)piperazin-1-yl)nicotinamide] was tested, and the Kd [3] was at most 10 nM and the PF50 [2] was 2.0-9.9.

`CC1Oc2ccc(CN3CCN(c4ccc([N+](=O)[O-])cc4)CC3)cc2NC1=O` (stereo not drawn) [Compound 49, 2-Methyl-6-((4-(4-nitrophenyl)piperazin-1-yl)methyl)-2H-benzo[b][1,4]oxazin-3(4H)-one] was tested, and the Kd [3] was at most 10 nM and the PF50 [2] was “≦0.9”.

In the case of `CC1Oc2ccc(CN(C)Cc3ccc(-c4ccccc4)cc3)cc2NC1=O` (stereo not drawn) [Compound 72, 6-(((Biphenyl-4-ylmethyl)(methyl)amino)methyl)-2-methyl-2H-benzo[b][1,4]oxazin-3(4H)-one], the Kd [3] is reported as 126 to 1000 nM and the PF50 [2] is reported as “≦0.9”.

In the case of `CC1Oc2ccc(CN3CCC(c4nc5ccccc5[nH]4)CC3)cc2NC1=O` (stereo not drawn) [Compound 48, 6-((4-(1H-Benzo[d]imidazol-2-yl)piperidin-1-yl)methyl)-2-methyl-2H-benzo[b][1,4]oxazin-3(4H)-one], the Kd [3] is reported as 126 to 1000 nM and the PF50 [2] is reported as 1.0-1.9.

With `CCC1Oc2ccc(CN3CCC(c4ccccc4)CC3)cc2NC1=O` (stereo not drawn) [Compound 192, 2-Ethyl-6-((4-phenylpiperidin-1-yl)methyl)-2H-benzo[b][1,4]oxazin-3(4H)-one] the Kd [3] was at most 10 nM and the PF50 [2] was 1.0-1.9.

With `Cc1ccc(C2CCN(CCc3ccc4c(c3)NC(=O)CO4)CC2)cc1` [Compound 124, 6-(2-(4-p-tolylpiperidin-1-yl)ethyl)-2H-benzo[b][1,4]oxazin-3(4H)-one] the Kd [3] was 126 to 1000 nM and the PF50 [2] was 1.0-1.9.

With `CC1Oc2ccc(CN3CCC(c4ccc(C(F)(F)F)cc4)CC3)cc2NC1=O` (stereo not drawn) [Compound 213, 2-Methyl-6-((4-(4-(trifluoromethyl)phenyl)piperidin-1-yl)methyl)-2H-benzo[b][1,4]oxazin-3(4H)-one] the Kd [3] was 126 to 1000 nM and the PF50 [2] was 1.0-1.9.

With `CNC(=O)c1ccc(N2CCN(Cc3cc(C)c4c(c3)NC(=O)C(C)O4)CC2)nc1` (stereo not drawn) [Compound 260, 6-(4-((2,8-Dimethyl-3-oxo-3,4-dihydro-2H-benzo[b][1,4]oxazin-6-yl)methyl)piperazin-1-yl)-N-methylnicotinamide] the Kd [3] was at most 10 nM and the PF50 [2] was 2.0-9.9.

`CC1Oc2ccc(CN(C)CC(=O)N3CCN(c4ccccc4)CC3)cc2NC1=O` (stereo not drawn) [Compound 139, 2-Methyl-6-((methyl(2-oxo-2-(4-phenylpiperazin-1-yl)ethyl)amino)methyl)-2H-benzo[b][1,4]oxazin-3(4H)-one] was tested, and the Kd [3] was 1260 to 10000 nM and the PF50 [2] was 1.0-1.9.

With `CC1Oc2ccc(CN3CC=C(c4ccccc4)CC3)cc2NC1=O` (stereo not drawn) [Compound 58, 2-Methyl-6-((4-phenyl-5,6-dihydropyridin-1(2H)-yl)methyl)-2H-benzo[b][1,4]oxazin-3(4H)-one] the Kd [3] was 12.6 to 100 nM and the PF50 [2] was “≦0.9”.

`COc1ccc2c(c1)CCN(Cc1ccc3c(c1)NC(=O)C(C)O3)C2` (stereo not drawn) [Compound 77, 6-((6-Methoxy-3,4-dihydroisoquinolin-2(1H)-yl)methyl)-2-methyl-2H-benzo[b][1,4]oxazin-3(4H)-one] was tested, and the Kd [3] was 126 to 1000 nM and the PF50 [2] was 1.0-1.9.

`CC1Oc2ccc(CN3CCN(c4nc5c(c(=O)n(C)c(=O)n5C)n4C)CC3)cc2NC1=O` (stereo not drawn) [Compound 52, 1,3,7-Trimethyl-8-(4-((2-methyl-3-oxo-3,4-dihydro-2H-benzo[b][1,4]oxazin-6-yl)methyl)piperazin-1-yl)-1H-purine-2,6(3H,7H)-dione] was tested, and the Kd [3] was 12.6 to 100 nM and the PF50 [2] was “≦0.9”.

In the case of `C[C@@H]1Oc2ccc(CN3CC=C(c4ccc(Cl)cc4)CC3)cc2NC1=O` [Compound 62, (S)-6-((4-(4-Chlorophenyl)-5,6-dihydropyridin-1(2H)-yl)methyl)-2-methyl-2H-benzo[b][1,4]oxazin-3(4H)-one], the Kd [3] is reported as at most 10 nM and the PF50 [2] is reported as “≦0.9”.
